Results from patent US6818782B2, “Enantiomeric compounds for treatment of cardiac arrhythmias and methods of use” (ARYX Therapeutics, priority 1999, dated 2004).

Columns and labels:
[1] = tested on: rats challenged by an arrhythmogenic combination of benzene vapors and adrenaline; assay: Anti-arrhythmic activity in anesthetized rats (benzene/adrenaline challenge: VPB and tachycardia); type: in vivo, rat; conditions: for Protection against adrenaline-induced tachycardia (heart rate), potency and duration: administered from time 0 to time 120 minutes; for Heart rate (beats/minute) / Inhibition of tachycardia / Number of VPB / Inhibition of VPB: isolated enantiomer compared to respective racemate; for Inhibition of VPB: 4 mg/kg i.v. then 12 mg/kg/h for 2 hours; for Anti-VPB activity at the end of the washout period: time 180 min; for Inhibition of formation of ventricular premature beats during drug administration: whole period of drug administration (time 0 to 120 min), 4 mg/kg i.v. then 12 mg/kg/h
Protocol: (§1) Anti-Arrhythmic Activity in Anesthetized Rats
(§2) Male Sprague-Dawley rats with body weights of 410±30 g (Harlan Sprague Dawley Inc., Indianapolis, Ind.), were anesthetized with sodium pentobarbital (50 mg/kg i.p.—Butler Co., Columbus, Ohio). The skin from the neck area was removed and the jugular veins on both sides were cleared of connective tissue. Both jugular veins and the left carotid artery were isolated, and the latter tied up cranially with a surgical silk (ETHICON 4-0, Ethicon Inc., Australia). A plastic catheter ([…] 19ga, Vecton Dickinson, Sandy, Utah), filled with a solution containing 10% sodium heparin (Elkins-Sinn Inc., Cherry Hill, N.J.) in normal saline (100 U/ml sodium heparin), was introduced into the artery and fixed with surgical silk.
(§3) The catheter was connected to a pressure transducer (OHMEDA P23-XL, Ohmeda Medical Devices Division Inc., Madison, Wis.), filled with the same heparinized 0.9% NaCl solution, to register beat-to-beat arterial pressure. Needle electrodes were inserted s.c., and together with the pressure transducer, were joined to a GOULD TA 2000 recorder. Leads II, aVF and intraarterial blood pressure were monitored simultaneously throughout the experiments and recorded at certain intervals at 50 and 200 mm/sec paper speed.
(§4) The surgery was completed with an incision on the trachea where a short plastic tubing was placed and the animal was connected to a rodent-model ventilator (HARVARD Model 683, Harvard Apparatus, Inc., Holliston, Mass.). The animals were ventilated in a controlled way, depending on their spontaneous breathing frequency (55-75/min).
(§5) Drug administrations were carried out through i.v. catheters (TERUMO 24 GA*¾″, Terumo Medical Corp., Elkton, Md.) inserted into both jugular veins. The left side was used for drug infusions by means of a syringe pump (SAGE INSTRUMENTS, Model 341B, Orion Res. Inc., Boston, Mass.), and the right side was used for adrenaline injections. The experiments were started after at least 15 minutes of stabilization. Benzene/adrenaline challenges were performed as follows: the respirator inlet was connected to a 50-ml bubbler half-full with benzene (Fisher Scientific, Fair Lawn, N.J.) so that the inspired air was saturated with benzene vapor. The animal was ventilated with benzene vapor for two minutes. The tidal volume was typically 1 ml/100 g of animal. During the last 30 seconds of benzene ventilation, 10 μg/kg adrenaline solution (in 0.9% NaCl) was injected into the right jugular vein. […] These arrhythmias could be elicited repeatedly. After three control VTs (at −30, −20 and −10 minutes), the test compounds were injected slowly during 30 seconds at a dose of 4 mg/kg i.v., immediately followed by a slow infusion of 12 mg/kg/h for 2 hours. The flow rate during the infusion period was 1 ml/h.
(§6) There were 5 rats per test compound and each animal served as its own control. The ability of the different drugs to suppress arrhythmias was tested against repeated benzene/adrenaline challenges at 5, 15, 30, 45, 60, 90, 120 (end of drug infusion), 135, 150, 165 and 180 minutes after the i.v. bolus injection. The amplitudes of the systolic arterial pressure and diastolic arterial pressure […] with the help of a pressure-amplitude calibration curve. Heart rate, number of ventricular complexes during the occurrence of VTs and VPBs, and certain ECG parameters (PR, QRS, QT durations and RR cycle lengths in msec) were also recorded and measured manually. At each time-point, 3-5 cycles were measured and the average values were entered into EXCEL Windows 97. The average and standard deviation for the five experimental animals per compound were calculated.

[2] = tested on: anesthetized rats; assay: EKG parameters (QT, QRS, PR) in anesthetized rats; type: in vivo, rat; conditions: for PR interval / QRS interval / QT interval: isolated enantiomer compared to respective racemate
Protocol: as §1, §2, §3, §4, §5, §6

Structure (SMILES): CCN(CC)CCOc1c(I)cc(C(=O)c2c(CC(=O)OC(C)C(C)C)oc3ccccc23)cc1I (stereo not shown) [ATI-2055]
- Protection against adrenaline-induced tachycardia (heart rate), potency and duration [1]: inhibits the tachycardia

Structure (SMILES): CC[C@H](C)OC(=O)Cc1oc2ccccc2c1C(=O)c1cc(I)c(OCCN(CC)CC)c(I)c1 [Compound S-2042, (S)-sec-Butyl 2-[3-(3,5-diiodo-4-(2-diethylaminoethyloxy)benzoyl)]benzofurane-acetate]
- Effect on PR segment of EKG (Class-IV activity), potency [2]: much more potent than R-2042 and the racemate R,S-2042
- Effect on QT segment of EKG (Class-III properties), potency and duration [2]: the most potent and the longest acting
- PR interval [2]: longer
- QRS interval [2]: longer
- QT interval [2]: longer
- Protection against adrenaline-induced tachycardia (heart rate), potency and duration [1]: more potent and longer acting then R-2042
- Heart rate (beats/minute) ([1]; anesthetized rats): lower
- Inhibition of tachycardia ([1]; anesthetized rats): longer
- Number of VPB ([1]; anesthetized rats): lower
- Inhibition of VPB ([1]; anesthetized rats): longer
- Anti-VPB activity at the end of the washout period [1]: still retained part of its activity
- Inhibition of formation of ventricular premature beats during drug administration [1]: totally inhibited the formation of ventricular premature beats

Structure (SMILES): CC[C@H](C)OC(=O)Cc1oc2ccccc2c1C(=O)c1cc(I)c(OCCN(CC)CC)c(I)c1 [ATI-2042]
- Protection against adrenaline-induced tachycardia (heart rate), potency and duration [1]: very good protection against this tachyarrhythmia

Structure (SMILES): CCN(CC)CCOc1c(I)cc(C(=O)c2c(CC(=O)O[C@H](C)C(C)C)oc3ccccc23)cc1I [Compound R-2055, (R)-(3-Methyl)-2butyl2-[3-(3,5-diiodo-4-(2-diethylaminoethyloxy)benzoyl)]benzofuraneacetate]
- PR interval [2]: shorter
- QRS interval [2]: longer
- QT interval [2]: no change
- Protection against adrenaline-induced tachycardia (heart rate), potency and duration [1]: longer-lasting effect than S-2055
- Heart rate (beats/minute) ([1]; anesthetized rats): lower
- Inhibition of tachycardia ([1]; anesthetized rats): longer
- Number of VPB ([1]; anesthetized rats): lower
- Inhibition of VPB ([1]; anesthetized rats): longer
- Anti-VPB activity at the end of the washout period [1]: still retained part of its activity
- Inhibition of formation of ventricular premature beats during drug administration [1]: totally inhibited the formation of ventricular premature beats

Structure (SMILES): CCN(CC)CCOc1c(I)cc(C(=O)c2c(CC(=O)O[C@@H](C)C(C)C)oc3ccccc23)cc1I [Compound S-2055, (S)-(3-Methyl)-2butyl2-[3-(3,5-diiodo-4-(2-diethylaminoethyloxy)benzoyl)]benzofuraneacetate]
- PR interval [2]: shorter
- QRS interval [2]: longer
- QT interval [2]: no change
- Time at which anti-VPB activity is lost ([1]; infusion time 0 to 120 min): ~40 min
- Heart rate (beats/minute) ([1]; anesthetized rats): lower
- Inhibition of tachycardia ([1]; anesthetized rats): longer
- Number of VPB ([1]; anesthetized rats): lower
- Inhibition of VPB ([1]; anesthetized rats): longer
- Anti-VPB activity at the end of the washout period [1]: completely inactive

Structure (SMILES): CC[C@@H](C)OC(=O)Cc1oc2ccccc2c1C(=O)c1cc(I)c(OCCN(CC)CC)c(I)c1 [Compound R-2042, (R)-sec-Butyl 2-[3-(3,5-diiodo-4-(2-diethylaminoethyloxy)benzoyl)]benzofuraneacetate]
- PR interval [2]: shorter
- QRS interval [2]: no change
- QT interval [2]: no change
- Heart rate (beats/minute) ([1]; anesthetized rats): lower
- Inhibition of tachycardia ([1]; anesthetized rats): longer
- Number of VPB ([1]; anesthetized rats): lower
- Inhibition of VPB ([1]; anesthetized rats): longer
- Anti-VPB activity at the end of the washout period [1]: completely inactive

Structure (SMILES): CC[C@H](C)OC(=O)Cc1oc2ccccc2c1C(=O)c1cc(I)c(OCCN(CC)CC)c(I)c1 [R,S-2042]
- Protection against adrenaline-induced tachycardia (heart rate), potency and duration [1]: the least potent and shortest acting
- Anti-VPB activity relative to the other forms ([1]; racemate vs enantiomers, anesthetized rats): even less active than either the R- or the S-isomer
